This note sets out measurements from ChEMBL document CHEMBL1133401 (Bioorg Med Chem Lett, 2000).

One series addresses T1, Adenosine receptor A1 (Cavia porcellus, UniProt P47745).
T1 sequence (P47745 whole entry): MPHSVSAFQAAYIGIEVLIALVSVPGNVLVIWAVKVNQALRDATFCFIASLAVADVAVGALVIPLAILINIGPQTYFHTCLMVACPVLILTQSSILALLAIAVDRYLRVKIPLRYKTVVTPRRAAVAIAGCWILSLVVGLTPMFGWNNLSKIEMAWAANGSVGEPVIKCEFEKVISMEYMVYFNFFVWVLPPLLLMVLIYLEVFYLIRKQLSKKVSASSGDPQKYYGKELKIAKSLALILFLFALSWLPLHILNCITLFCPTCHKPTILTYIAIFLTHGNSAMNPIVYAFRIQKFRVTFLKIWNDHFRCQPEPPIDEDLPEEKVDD
Kind of series: Ex vivo inhibition of guinea pig ileum twitch via Adenosine A1 receptor. The series is classed as tissue-based.

Series [1] is described as follows: The compound was evaluated for the aqueous solubility at pH value of 2.6. The series is classed as physicochemical. Particulars: pH 2.6.
Series [2] concerns the target T2, Adenosine receptor A2a (Rattus norvegicus, UniProt P30543). In words: (§1) Agonistic activity against Adenosine A2A receptor on rat striatal membranes.
Series [3] deals with T2, Adenosine receptor A2a. Described as §1. It is filed as functional, Striatum, Membrane.

Each structure is given as a SMILES string. Values after ≈ are worked out from the molar mass of the structure shown.

Broadly, the solubility is the concentration that dissolves in the medium under given conditions. Usually Ki stands for the equilibrium dissociation constant of an inhibitor or competing ligand from its target.

T2 sequence (P30543 whole entry): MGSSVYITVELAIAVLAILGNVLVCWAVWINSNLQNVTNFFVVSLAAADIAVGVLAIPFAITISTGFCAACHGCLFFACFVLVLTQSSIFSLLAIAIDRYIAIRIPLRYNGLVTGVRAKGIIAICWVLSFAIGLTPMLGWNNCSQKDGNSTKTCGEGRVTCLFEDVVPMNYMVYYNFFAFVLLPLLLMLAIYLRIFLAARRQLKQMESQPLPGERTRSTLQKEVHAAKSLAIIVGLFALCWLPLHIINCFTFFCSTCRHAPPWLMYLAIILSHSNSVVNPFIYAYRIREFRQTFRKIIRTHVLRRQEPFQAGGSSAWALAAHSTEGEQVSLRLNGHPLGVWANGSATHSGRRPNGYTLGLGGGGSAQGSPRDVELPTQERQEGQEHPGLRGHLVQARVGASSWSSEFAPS

Compound `Nc1nc(NC2CCCC2)nc2c1ncn2[C@@H]1O[C@H](CO)[C@@H](O)[C@H]1O` gave an ECR on Adenosine receptor A1 of 549. `CCNC(=O)[C@H]1O[C@@H](n2cnc3c(N)nc(N[C@@H]4CCC[C@H]4O)nc32)[C@H](O)[C@@H]1O` came in with an ECR at Adenosine receptor A1 of 260. On the same count and under the same terms, under `OC[C@H]1O[C@@H](n2cnc3c(NCC(c4ccccc4)c4ccccc4)nc(NC4CCCC4)nc32)[C@H](O)[C@@H]1O` stands > 612.

Take `CCNC(=O)[C@H]1O[C@@H](n2cnc3c(NCC(c4ccccc4)c4ccccc4)nc(NCCN4CCCCC4)nc32)[C@H](O)[C@@H]1O.O=C(O)C(F)(F)F`: the solubility in series [1] was ≥ 1870 µg/mL. The compound further gave an ECR at Adenosine receptor A1 of 263. Turning to `OC[C@H]1O[C@@H](n2cnc3c(N[C@@H]4CCC[C@@H]4O)nc(Cl)nc32)[C@H](O)[C@@H]1O`, the ECR at Adenosine receptor A1 is 2.

Compound `CCNC(=O)[C@H]1O[C@@H](n2cnc3c(NCC(c4ccccc4)c4ccccc4)nc(N[C@@H]4CCC[C@H]4O)nc32)[C@H](O)[C@@H]1O` came in with an ECR on Adenosine receptor A1 of 390. `Nc1nc(N[C@H]2CCC[C@@H]2O)nc2c1ncn2[C@@H]1O[C@H](CO)[C@@H](O)[C@H]1O` gave an ECR on Adenosine receptor A1 of 84. Consider `OC[C@H]1O[C@@H](n2cnc3c(NCc4cccc5ccccc45)ncnc32)[C@H](O)[C@@H]1O`, for which the affinity at Adenosine receptor A2a [2] corresponds to a Ki of 0.0094 µM. The compound `OC[C@H]1O[C@@H](n2cnc3c(NC4CCCC4)nc(Cl)nc32)[C@H](O)[C@@H]1O` gave an ECR on Adenosine receptor A1 of 1.

Regarding `Nc1nc(N[C@@H]2CCC[C@H]2O)nc2c1ncn2[C@@H]1O[C@H](CO)[C@@H](O)[C@H]1O`, on Adenosine receptor A1, the ECR worked out at 1470.

As for `CCNC(=O)[C@H]1O[C@@H](n2cnc3c(NCC(c4ccccc4)c4ccccc4)nc(NCCc4c[nH]cn4)nc32)[C@H](O)[C@@H]1O`, in series [1], the solubility is ≥ 1820 µg/mL. The ECR on Adenosine receptor A1 turned out to be 672. For `CCNC(=O)[C@H]1O[C@@H](n2cnc3c(NCC(c4ccccc4)c4ccccc4)nc(N[C@H]4CC[C@H](N)CC4)nc32)[C@H](O)[C@@H]1O.O=C(O)C(F)(F)F`, in that order: 1570 µg/mL and 369. Consider `OC[C@H]1O[C@@H](n2cnc3c(NCCc4cccc(Cl)c4)nc(NC4CCCC4)nc32)[C@H](O)[C@@H]1O`, for which the ECR at Adenosine receptor A1 was > 1000. Consider `CCNC(=O)[C@H]1O[C@@H](n2cnc3c(N)nc(NC4CCCC4)nc32)[C@H](O)[C@@H]1O`, for which, on Adenosine receptor A1, the ECR was found to be 80.

As for `OC[C@H]1O[C@@H](n2cnc3c(NCc4cccc5ccccc45)nc(NC4CCCCC4)nc32)[C@H](O)[C@@H]1O`, on Adenosine receptor A2a [3], affinity was put at a Ki of 10.3 µM. As for `CCNC(=O)[C@H]1O[C@@H](n2cnc3c(NCC(c4ccccc4)c4ccccc4)nc(NC4CCCC4)nc32)[C@H](O)[C@@H]1O`, in series [1], the concentration in solution (solubility) came to 24 µg/mL (≈ 42 µM). Moreover, the ECR on Adenosine receptor A1 was > 5000.
